PubChem BioAssay AID1745844 (Carcinogenic Potency Database (CPDB), 2022)

Test system: rodent lifetime carcinogenesis bioassay, tumor incidence TD50
Experiment: carcinogenic potency in animals, long-term in vivo studies, CPDB compilation (AID 1745844)
Settings: mouse, strain B6C3F1, males, inhaled

## C=CC=C
site: Harderian gland, lesion: adenocarcinoma + adenocarcinoma, bilateral, dosed 52 weeks, study length 104 weeks
  TD50: 88.9 mg/kg/day
site: Harderian gland, lesion: adenocarcinoma + adenoma + adenocarcinoma, bilateral + adenoma, bilateral, dosed 13 weeks, study length 104 weeks
  TD50: 11.7 mg/kg/day
site: Harderian gland, lesion: adenocarcinoma + adenoma + adenocarcinoma, bilateral + adenoma, bilateral, dosed 26 weeks, study length 104 weeks
  TD50: 22.7 mg/kg/day
site: Harderian gland, lesion: adenocarcinoma + adenoma + adenocarcinoma, bilateral + adenoma, bilateral, dosed 52 weeks, study length 104 weeks
  TD50: 13.1 mg/kg/day
site: Harderian gland, lesion: adenocarcinoma + adenoma + adenoma, bilateral, dosed 40 weeks, study length 104 weeks
  TD50: 17.5 mg/kg/day
site: Harderian gland, lesion: adenocarcinoma + adenoma + adenoma, bilateral, dosed 82 weeks, study length 104 weeks
  TD50: 26.1 mg/kg/day
site: Harderian gland, lesion: adenocarcinoma, dosed 40 weeks, study length 104 weeks
  TD50: 531 mg/kg/day
site: Harderian gland, lesion: adenocarcinoma, dosed 82 weeks, study length 104 weeks
  TD50: 221 mg/kg/day
site: Harderian gland, lesion: adenoma + adenoma, bilateral, dosed 13 weeks, study length 104 weeks
  TD50: 14.9 mg/kg/day
site: Harderian gland, lesion: adenoma + adenoma, bilateral, dosed 26 weeks, study length 104 weeks
  TD50: 22.7 mg/kg/day
site: Harderian gland, lesion: adenoma + adenoma, bilateral, dosed 40 weeks, study length 104 weeks
  TD50: 18 mg/kg/day
site: Harderian gland, lesion: adenoma + adenoma, bilateral, dosed 52 weeks, study length 104 weeks
  TD50: 14.9 mg/kg/day
site: Harderian gland, lesion: adenoma + adenoma, bilateral, dosed 82 weeks, study length 104 weeks
  TD50: 27.6 mg/kg/day
site: Zymbal's gland, lesion: adenoma + carcinoma, dosed 13 weeks, study length 104 weeks
  TD50: 223 mg/kg/day
site: Zymbal's gland, lesion: adenoma + carcinoma, dosed 26 weeks, study length 104 weeks
  TD50: 135 mg/kg/day
site: Zymbal's gland, lesion: adenoma + carcinoma, dosed 40 weeks, study length 104 weeks
  TD50: 647 mg/kg/day
site: Zymbal's gland, lesion: carcinoma, dosed 13 weeks, study length 104 weeks
  TD50: 336 mg/kg/day
site: Zymbal's gland, lesion: carcinoma, dosed 26 weeks, study length 104 weeks
  TD50: 135 mg/kg/day
site: Zymbal's gland, lesion: carcinoma, dosed 40 weeks, study length 104 weeks
  TD50: 625 mg/kg/day
site: all sites + brain + forestomach + Harderian gland + heart + kidney + liver + lung + preputial gland, lesion: histiocytic sarcoma + malignant lymphoma, mixed type + malignant lymphoma, lymphocytic type + malignant lymphoma + olfactory lob, dosed 13 weeks, study length 104 weeks
  TD50: 7 mg/kg/day
site: all sites + brain + forestomach + Harderian gland + heart + kidney + liver + lung + preputial gland, lesion: histiocytic sarcoma + malignant lymphoma, mixed type + malignant lymphoma, lymphocytic type + malignant lymphoma + olfactory lob, dosed 26 weeks, study length 104 weeks
  TD50: 12.6 mg/kg/day
site: all sites + forestomach + Harderian gland + heart + kidney + liver + lung + preputial gland, lesion: histiocytic sarcoma + malignant lymphoma, histiocytic type + malignant lymphoma, mixed type + malignant lymphoma, lymphocytic, dosed 82 weeks, study length 104 weeks
  TD50: 10.7 mg/kg/day
site: all sites + forestomach + Harderian gland + heart + kidney + liver + lung + preputial gland, lesion: histiocytic sarcoma + malignant lymphoma, mixed type + malignant lymphoma, lymphocytic type + malignant lymphoma + squamous-cell, dosed 40 weeks, study length 104 weeks
  TD50: 10.9 mg/kg/day
site: all sites + forestomach + Harderian gland + heart + kidney + liver + lung + preputial gland, lesion: histiocytic sarcoma + malignant lymphoma, mixed type + malignant lymphoma, lymphocytic type + malignant lymphoma + squamous-cell, dosed 52 weeks, study length 104 weeks
  TD50: 6.12 mg/kg/day
site: all sites + forestomach + heart + lung, lesion: malignant lymphoma, NOS + papilloma, NOS + squamous-cell papilloma + hemangiosarcoma + alveolar/bronchiolar adenoma + alveolar/bro, dosed 60 weeks, study length 60 weeks
  TD50: 28.8 mg/kg/day
site: all sites, lesion: hemangioma + hemangiosarcoma, dosed 13 weeks, study length 104 weeks
  TD50: 16.9 mg/kg/day
site: all sites, lesion: hemangioma + hemangiosarcoma, dosed 26 weeks, study length 104 weeks
  TD50: 17.7 mg/kg/day
site: all sites, lesion: hemangioma + hemangiosarcoma, dosed 40 weeks, study length 104 weeks
  TD50: 17.3 mg/kg/day
site: all sites, lesion: hemangioma + hemangiosarcoma, dosed 52 weeks, study length 104 weeks
  TD50: 11.1 mg/kg/day
site: all sites, lesion: hemangioma + hemangiosarcoma, dosed 82 weeks, study length 104 weeks
  TD50: 38 mg/kg/day
site: all sites, lesion: hemangioma, dosed 13 weeks, study length 104 weeks
  TD50: 45.8 mg/kg/day
site: all sites, lesion: hemangioma, dosed 40 weeks, study length 104 weeks
  TD50: 95.2 mg/kg/day
site: all sites, lesion: hemangiosarcoma, dosed 13 weeks, study length 104 weeks
  TD50: 21.9 mg/kg/day
site: all sites, lesion: hemangiosarcoma, dosed 26 weeks, study length 104 weeks
  TD50: 17.7 mg/kg/day
site: all sites, lesion: hemangiosarcoma, dosed 40 weeks, study length 104 weeks
  TD50: 20.8 mg/kg/day
site: all sites, lesion: hemangiosarcoma, dosed 52 weeks, study length 104 weeks
  TD50: 11.9 mg/kg/day
site: all sites, lesion: hemangiosarcoma, dosed 82 weeks, study length 104 weeks
  TD50: 45.5 mg/kg/day
site: all sites, lesion: histiocytic sarcoma + malignant lymphoma, histiocytic type + malignant lymphoma, mixed type + malignant lymphoma, lymphocytic, dosed 82 weeks, study length 104 weeks
  TD50: 63.5 mg/kg/day
site: all sites, lesion: histiocytic sarcoma + malignant lymphoma, mixed type + malignant lymphoma, lymphocytic type + malignant lymphoma, dosed 13 weeks, study length 104 weeks
  TD50: 26.2 mg/kg/day
site: all sites, lesion: histiocytic sarcoma + malignant lymphoma, mixed type + malignant lymphoma, lymphocytic type + malignant lymphoma, dosed 26 weeks, study length 104 weeks
  TD50: 28.8 mg/kg/day
site: all sites, lesion: histiocytic sarcoma + malignant lymphoma, mixed type + malignant lymphoma, lymphocytic type + malignant lymphoma, dosed 40 weeks, study length 104 weeks
  TD50: 57.1 mg/kg/day
site: all sites, lesion: histiocytic sarcoma + malignant lymphoma, mixed type + malignant lymphoma, lymphocytic type + malignant lymphoma, dosed 52 weeks, study length 104 weeks
  TD50: 27.6 mg/kg/day
site: all sites, lesion: histiocytic sarcoma, dosed 13 weeks, study length 104 weeks
  TD50: 91.1 mg/kg/day
site: all sites, lesion: histiocytic sarcoma, dosed 26 weeks, study length 104 weeks
  TD50: 396 mg/kg/day
site: all sites, lesion: histiocytic sarcoma, dosed 40 weeks, study length 104 weeks
  TD50: 128 mg/kg/day
site: all sites, lesion: histiocytic sarcoma, dosed 52 weeks, study length 104 weeks
  TD50: 110 mg/kg/day
site: all sites, lesion: histiocytic sarcoma, dosed 82 weeks, study length 104 weeks
  TD50: 157 mg/kg/day
site: all sites, lesion: malignant lymphoma, NOS, dosed 60 weeks, study length 60 weeks
  TD50: 105 mg/kg/day
site: all sites, lesion: malignant lymphoma, histiocytic type + malignant lymphoma, mixed type + malignant lymphoma, lymphocytic type + malignant lymph, dosed 82 weeks, study length 104 weeks
  TD50: 99.8 mg/kg/day
site: all sites, lesion: malignant lymphoma, lymphocytic type, dosed 13 weeks, study length 104 weeks
  TD50: 66.8 mg/kg/day
site: all sites, lesion: malignant lymphoma, lymphocytic type, dosed 26 weeks, study length 104 weeks
  TD50: 46 mg/kg/day
site: all sites, lesion: malignant lymphoma, lymphocytic type, dosed 40 weeks, study length 104 weeks
  TD50: 142 mg/kg/day
site: all sites, lesion: malignant lymphoma, lymphocytic type, dosed 52 weeks, study length 104 weeks
  TD50: 129 mg/kg/day
site: all sites, lesion: malignant lymphoma, lymphocytic type, dosed 82 weeks, study length 104 weeks
  TD50: 157 mg/kg/day
site: all sites, lesion: malignant lymphoma, mixed type + malignant lymphoma, lymphocytic type + malignant lymphoma, dosed 13 weeks, study length 104 weeks
  TD50: 34.9 mg/kg/day
